The test system of data set [1] is PAX6 positive neural progenitor cells. Format: cell-based. Particulars: 72 hours continuous STF-31 plus exogenous NA. The text has this:
Data expressed as mean+S.D. (n=4); p<0.05, **p<0.01, ***p<0.001. […] Data expressed as mean+S.D. (n=4), *p<0.05, **p<0.01, ***p<0.001.

Data set [2] deals with hiPSC (DF6-9-9T). The experiment in a line: SYTOX Green cell viability assay. Format: cell-based, human. Particulars: 72 hours treatment; 2.5 μM STF-31, 30 μM WZB117, 20 μM PluriSIn. How it is done:
(§1) In Vitro Toxicity Assays: Treatment with small molecules or glucose deprivation was initiated in hESC or hiPSC at 24 and 96 h post-plating and in vitro toxicity assays were performed at specified treatment endpoints 24-96 hours after treatment initiation. […] Neutral red assays for cell viability were performed as previously described. In vitro cell death was determined using SYTOX® Green nucleic acid stain (Life Technologies). Briefly, cells were incubated in 5 μM SYTOX® Green for 30 minutes at 37° C. in a humidified cell incubator with 5% CO2. Percent cell viability was determined by normalizing to replicate cells incubated with 120 μM digitonin (Sigma-Aldrich) and 5 μM SYTOX® Green. Imaging of cell viability was performed using Live/Dead® Viability/Cytotoxicity Kit, for mammalian cells (Life Technologies). Cells were stained for 20 minutes at room temperature with 4 μM Calcein AM to detect viable cells and 2 μM Ethidium Homodimer 1 to detect cells with compromised membranes. Representative images of alterations in cell morphology were acquired on confluent hPSC 24-72 hours after treatment initiation. Imaging was performed with a Nikon Ti-U inverted microscope.

For data set [3], the system named is hiPSC. The data set can be described thus: Live/dead staining (calcein AM / ethidium homodimer-1). It counts as cell-based, human. Particulars: 72 hours, confluent; 2.5 μM STF-31, 30 μM WZB117, 20 μM PluriSIn. How it is done:
as §1

Data set [4] relates to hiPSC (DF6-9-9T). The data set can be described thus: Neutral red cell viability assay in hiPSC. Particulars: for elimination of hiPSC: 24 hour treatment, sub-confluent hiPSC; for toxicity: 72 hours. Format: cell-based, human. As to the method: Neutral red assays for cell viability were performed as previously described. In vitro cell death was determined using SYTOX® Green nucleic acid stain (Life Technologies). Briefly, cells were incubated in 5 μM SYTOX® Green for 30 minutes at 37° C. in a humidified cell incubator with 5% CO2. […] Imaging of cell viability was performed using Live/Dead® Viability/Cytotoxicity Kit, for mammalian cells (Life Technologies). Cells were stained for 20 minutes at room temperature with 4 μM Calcein AM to detect viable cells and 2 μM Ethidium Homodimer 1 to detect cells with compromised membranes. […] Imaging was performed with a Nikon Ti-U inverted microscope.

In data set [5] the test system is confluent hiPSC (DF6-9-9T). The experiment in a line: Bright field imaging of cell morphology. Format: cell-based, human. Particulars: 72 hours, 2.5 μM STF-31, 30 μM WZB117, 20 μM PluriSIn. How it is done:
as §1

The next data set relates to confluent hiPSC. The experiment in a line: Colony formation assay (alkaline phosphatase staining). It counts as cell-based, human. Particulars: 24 hour pulse, cells passaged, cultured 6 days. How it is done: The first iteration was adapted from previously described method, after 24 hours of treatment, hiPSC were detached with Accutase (StemCell Technologies), re-suspended in E8, passed though 12×75 mm tube with cell strainer cap (Falcon), and plated at 5e4 live cells per 2 cm^2. Media were changed every 48 hours and cells were cultured for six days, at which time staining for alkaline phosphatase was performed with leukocyte alkaline phosphatase kit (Sigma-Aldrich) as described and plates were visually inspected for phosphatase-positive colonies. This strategy represents the most common implementation of the colony formation assay. However, concerns regarding the cell death normally encountered during passaging prompted another approach for stricter assessment. In the second iteration, cells were treated for 24 hours, washed twice with 0.5 mL D-PBS, and media refreshed with E8. Thereafter, media were replaced daily for six days at which point staining for alkaline phosphatase activity was performed. […] Elimination of hiPSC from co-cultures with differentiated cells was performed with human fibroblasts and day 10 cardiomyocytes derived from hiPSC. hiPSC (DF6-9-9T) were plated at concentrations ranging from 100-10,000 live cells per well with human fibroblasts (1.75e5 cells) or day 10 differentiated cardiomyocytes (3.75e5 cells) in E8 and Y-27632 per 9.6 cm^2. […] Six days after plating, staining for alkaline phosphatase activity was performed. […] Imaging of wells was performed with a Sony Cyber-shot DSC-TX30 and individual colonies with a Nikon stereoscope.

For data set [6], the system named is hiPSC. The data set can be described thus: Extracellular flux analysis (ECAR, OCR). Format: cell-based, human. How it is done: Extracellular Flux Analysis: hiPSC were plated at 6e4 cells per well on specialized microplate (Seahorse Bioscience) as previously described with several exceptions. Extracellular flux analysis was performed on hiPSC 48 hours post-plating using Seahorse Bioscience XF24 Analyzer. […] The microplate was equilibrated in non-CO2 incubator for 1.5 h, and analyzed for 16 h in Seahorse Bioscience XF24 Analyzer. Assay medium consists of basal E8 reagents with the following exceptions: basal DMEM F-12 without phenol red (Gibco), no sodium bicarbonate, and 2.5 mM GlutaMAX™ (Gibco) and 15 mM Hepes (Gibco). Assay medium was adjusted to pH 7.4 at 37° C. prior to use. Extracellular acidification rate (ECAR) and basal oxygen consumption rate (OCR) were collected approximately every 60 minutes. Treatments were normalized to baseline media control value and are represented as average of thee biological replicates.

The test system of data set [7] is sub-confluent hiPSC. The experiment in a line: Glucose uptake assay ([3H]2-deoxyglucose). Format: cell-based, human. Particulars: 1 hour of treatment; 2.5 μM STF-31, 30 μM WZB117. How it is done: For 1 hour treatment, cells were placed in Krebs-Ringer Hepes (KRH) containing treatment at 37° C. in a humidified cell incubator with 5% CO2. For 15, 18, and 24 hour treatments, cells were treated in E8 medium for 14, 17, and 23 hours, respectively, at which point media was changed to KRH buffer containing specific treatment for 1 hour. After specified treatment time, glucose uptake was performed with 0.5 μCi [^3H]2-deoxyglucose for 5 min at 37° C. as previously described. Uptake data were normalized to protein concentration measured with Lowry method.

In data set [8] the test system is sub-confluent hiPSC. The data set can be described thus: Immunoblot analysis of p-AMPK, AMPK, cleaved caspase-3 and -9. It counts as cell-based, human. How it is done:
Immunoblot Analysis: Non-adherent cells were collected by centrifugation, adherent cells were washed once with d-PBS and lysed in Laemmli buffer, combined with non-adherent cell pellet, and heated at 95° C. for 5 minutes. Protein concentration was measured using the Qubit protein assay (Life Technologies). 25 μg of total protein was separated by SDS-PAGE, transferred to nitrocellulose membrane (GE Healthcare Life Sciences) and blocked according to the manufacturer's instructions. Membranes were incubated overnight at 4° C. with the following dilutions of primary antibodies: rabbit anti-cleaved caspase-3 (1:500), rabbit anti-caspase-9 (1:1000), rabbit anti-phospho-AMPK (1:1000), and rabbit anti-AMPK (1:1,000) from Cell Signaling Technology, and mouse anti-GAPDH (1:10,000) from Life Technologies. Membranes were then incubated with secondary antibodies for 45 minutes at the following concentrations: donkey anti-mouse-horseradish peroxidase (1:5,000) and donkey anti-rabbit-horseradish peroxidase (1:7,000) from Jackson Immunoresearch Laboratories, Inc., followed by detection using enhanced chemiluminescence.

Data set [9] deals with sub-confluent hiPSC. The experiment in a line: Cleaved caspase-3/7 fluorescence based assay. Format: cell-based, human. Particulars: after initiation of treatment; 2.5 μM STF-31, 30 μM WZB117.
Another data set has as its system hiPSCs. The experiment in a line: Cell viability of hiPSCs treated with FK866. Format: cell-based, human. Particulars: up to 72 hours. As to the method: FIG. 10 presents data regarding FK866 toxicity on human pluripotent stem cells. […] Cell viability data is presented for hiPSCs treated with FK866 for up to 72 hours. […] (B) Cell viability of human pluripotent stem cells 72 hours after treatment initiation with FK866. Cells were treated with a range of concentrations (1 nM to 10 μM) either continuously or for 24 hour pulse.
FIG. 10 presents cell viability data for hiPSCs treated with FK866 (FIG. 9B) for up to 72 hours. […] Therefore, an effective strategy for selectively eliminating pluripotent stem cells is to deplete NAD^+ levels using a NAMPT inhibitor. […] Thus, these compounds will be useful for selectively eliminating tumorigenic cells in cells prepared for transplantation, independent of whether teratoma-causing cells in differentiated cultures are pluripotent or comprise one or more differentiated phenotypes.

Where [10] appears, read: sub-confluent cells, 30 μM WZB117, 20 μM PluriSIn.

A value given as a limit tells only on which side of the number the result lay.

Regarding `O=C(O)c1cccnc1` [nicotinic acid], in [1], the “rescue of cell death caused by STF-31” value is on record as “can be rescued”.
Consider `O=C(NNc1ccccc1)c1ccncc1` [PluriSIn], for which the “cell viability (SYTOX Green)” value with hiPSC (DF6-9-9T) [2] was “no significant reduction”. In the data set on hiPSC [3], the live/dead staining result is “not toxic”. For the same compound, the “elimination of hiPSC” value in the data set with hiPSC (DF6-9-9T) [4] (30 μM WZB117, 20 μM PluriSIn) is given as “eliminated sub-confluent hiPSC”. Also, in the data set on hiPSC (DF6-9-9T) [4] (confluent cells, 20-40 μM), the “cell death with increasing concentrations” value is on record as “did not result in cell death”. The toxicity entry with hiPSC (DF6-9-9T) [4] (confluent cells, 20 μM PluriSIn) is “did not induce significant toxicity”; in the data set on hiPSC (DF6-9-9T) [4] (setting [10]), “only effective on sub-confluent cells”. Also, the “morphology of hiPSC” value in data set [5] was “minimal alterations in the morphology”. Also, the “formation of alkaline phosphatase-positive colonies” value with confluent hiPSC is on record as “did not prevent colony growth”.
Turning to `O=C(Oc1cccc(F)c1OC(=O)c1cccc(O)c1)c1cccc(O)c1` [WZB117], in the data set with hiPSC (DF6-9-9T) [2], the “cell viability (SYTOX Green)” value was “no significant reduction”. Besides, in the data set on hiPSC [3], the live/dead staining result is given as “not toxic”. Further, the “elimination of hiPSC” value with hiPSC (DF6-9-9T) [4] (30 μM WZB117, 20 μM PluriSIn) is reported as “eliminated sub-confluent hiPSC”. Besides, the toxicity result is recorded as “toxic” in the data set with hiPSC (DF6-9-9T) [4] (confluent cells treated 24 hours post-plating, 30 μM WZB117); “significantly less toxic” in the data set with hiPSC (DF6-9-9T) [4] (confluent cells treated 96 hours post-plating, 30 μM WZB117); “toxic” with hiPSC (DF6-9-9T) [4] (setting [10]). Besides, the “morphology of hiPSC” value in data set [5] is given as “morphological changes such as cell swelling”. Also, in the data set on confluent hiPSC, the “formation of alkaline phosphatase-positive colonies” value is given as “did not prevent colony growth”. Also, the “time before reductions in OCR” value in the data set with hiPSC [6] (2.5 μM STF-31, 30 μM WZB117) is not above 8 h. Also, in the data set with hiPSC [6] (30 μM WZB117), the “effect on ECAR” value is given as “decrease in ECAR by the earliest timepoint measured”. In the data set with sub-confluent hiPSC [7], the “decrease in glucose uptake” value was determined as 20%. In addition, the “time at which cleaved caspase-3 and -9 are observed” value in the data set on sub-confluent hiPSC [8] (2.5 μM STF-31, 30 μM WZB117) amounted to 12 h. Moreover, the “time by which total levels of AMPK decreased” value with sub-confluent hiPSC [8] (30 μM WZB117) is not above 24 h. In addition, in the data set with sub-confluent hiPSC [8] (post-treatment, 2.5 μM STF-31, 30 μM WZB117), the “time at which p-AMPK is detected/increased” value was determined as 12 h. Also, the “time of induction of caspase-3/7 activity” value in the data set on sub-confluent hiPSC [9] came out at 12 h.
With `NC(=O)c1cccnc1` [nicotinamide], the “rescue of STF-31 mediated toxicity” value in the data set with hiPSC (DF6-9-9T) [4] (10 and 100 μM nicotinamide, data not shown) is listed as “failed to rescue”.
On to `O=C(/C=C/c1cccnc1)NCCCCC1CCN(C(=O)c2ccccc2)CC1` [FK866], for which the “toxicity to human pluripotent stem cells relative to STF-31” value in the data set on hiPSCs is “toxic to human pluripotent stem cells at lower concentrations than STF-31”.

(Values after US11959096B2, “Methods for selective inhibition of pluripotent stem cells” (THE MEDICAL COLLEGE OF WISCONSIN, INC., priority 2014, dated 2024).)
